In brackets after ≈: the same amount, converted by molar mass.
Key:
[1] = Inhibition of hemin crystallization at 0.25 to 10 mol equiv after 18 hrs by spectrophotometric analysis; assay type: physicochemical
Plasmodium falciparum [2] = assay: Antimalarial activity against chloroquine-sensitive Plasmodium falciparum D10 infected in human type A-positive red blood cells assessed as parasite growth inhibition after 72 hrs by lactate dehydrogenase assay; assay type: functional, organism-based; conditions: D10, 72 h
Plasmodium falciparum [3] = assay: Antimalarial activity against chloroquine-resistant Plasmodium falciparum W2 infected in human type A-positive red blood cells assessed as parasite growth inhibition after 72 hrs by lactate dehydrogenase assay; assay type: functional, organism-based; conditions: W2, 72 h

Structure (SMILES)	inhibition (INH) [1]	IC50 (Plasmodium falciparum [2]) [µg/mL]	IC50 (Plasmodium falciparum [3]) [µg/mL]
CCCCCCCOC[C@H]1O[C@H](OO)C[C@@H](OCCCCCCC)[C@H]1OCCCCCCC	Not Active	> 5	> 5
CCCCCCCCCCCCOC[C@H]1O[C@H](OO)C[C@@H](OCCCCCCCCCCCC)[C@H]1OCCCCCCCCCCCC	Not Active	> 5	> 5
CCCCCCCCCCCCCCCCCCOC[C@H]1O[C@H](OO)C[C@@H](OCCCCCCCCCCCCCCCCCC)[C@H]1OCCCCCCCCCCCCCCCCCC	Not Active	> 5	> 5
CCCCCCCO[C@H]1C[C@@H](OO)OC[C@H]1OCCCCCCC	Active	1.42 (≈ 4.09 µM)	1.69 (≈ 4.88 µM)
CCCCCCCCCCCCCCCCCC(=O)O[C@@H]1C[C@@H](OO)O[C@H]1[C@@H](O)CO	Not Active	> 5	> 5
C[C@@H]1CC[C@H]2[C@@H](C)C(=O)O[C@@H]3O[C@@]4(C)CC[C@@H]1[C@]32OO4 [ARTEMISININ]		0.0121 (≈ 0.043 µM)	0.00824 (≈ 0.0292 µM)
CCN(CC)CCCC(C)Nc1ccnc2cc(Cl)ccc12 (stereo not drawn) [CHLOROQUINE]	Active		

Reference: ChEMBL document CHEMBL3585275, “Glycosyl hydroperoxides: a new class of potential antimalarial agents” (Bioorg Med Chem, 2015)
